{"source": "patent US10632206B2", "about": "“Zwitterionic polymers with therapeutic moieties” (priority 2008, dated 2020)", "experiment_in_all_cases": "In vitro cytotoxicity, CellTiter-Glo cell viability", "format_in_all_cases": "cell-based", "key": {"[1]": {"system": "colon (COLO 205) adenocarcinoma cells", "details": "Homo sapiens, 72 h incubation, CPT-equivalent concentrations", "excerpt": "(§1) HPLC characterization of CPT liberation from CPT-polyMPC conjugates confirmed the importance of tailored linkers, and was informative for in vitro cell culture evaluation of conjugate toxicity against various cell lines. […] These CPT hydrolysis half-lives are, however, slower than those reported for PEGylated-SN38 conjugates, leading to an expected longer blood circulation time in vivo. […] Controls included a DMSO solution of CPT, and polyMPC itself in sterile distilled water. […] Importantly, the cytotoxicity was through the CPT only, since polyMPC by itself was non-toxic (FIG. 8).\n(§2) Sodium azide, 4-(dimethylamino)pyridine (DMAP), N,N′-diisopropylethylamine (DIPEA), triethylamine (TEA), N-(3-Dimethylaminopropyl)-N′-ethylcarbodiimide hydrochloride (EDC), 2-bromopropionyl bromide, 2-bromoisobutyryl bromide, copper(I) bromide, 2,2′-bipyridine (bpy), 6-bromohexanoic acid, 2-[2-(2-chloroethoxy)ethoxy]ethanol, ethyl 2-bromoisobutyrate, 3-(trimethylsilyl)propargyl alcohol, methacyloyl chloride, mouse serum, and human plasma were purchased from Aldrich. 20(S)-camptothecin (CPT) was purchased from Acros. Chromium trioxide was purchased from Alfa Aesar. TFA was purchased from Fisher Scientific. Boc-Gly-OH was purchased from Advanced ChemTech. MPC monomer was synthesized in house. […] Cell viability was measured using CellTiter-Glo luminescent cell viability assays (Promega).\n(§3) The COLO 205 and OVCAR 3 cancer cells were cultured in RPMI-1640 medium supplemented with 10% fetal bovine serum (FBS) or 20% FBS and 0.01 mg/ml bovine insulin, while MCF 7 cells were cultured in MEM medium supplemented with 10% FBS and 0.01 mg/ml bovine insulin. […] Cell viability post-treatment was measured using CellTiter-Glo luminescent cell viability assays (Promega) as per manufacturer's instructions on a FLUOstar OPTIMA plate reader (BMG LABTECH). The percentage camptothecin mediated toxicity was calculated with respect to untreated cells, and graphed to give dose response curves. IC50 values for each treatment were then calculated using the GraphPad Prism4 statistical analysis software."}, "[2]": {"system": "human breast (MCF-7) adenocarcinoma cells", "details": "MCF7, 72 h incubation, CPT-equivalent concentrations", "excerpt": "as §1, §2, §3"}, "[3]": {"system": "ovarian (OVCAR 3) adenocarcinoma cells", "details": "Homo sapiens, 72 h incubation, CPT-equivalent concentrations", "excerpt": "as §1, §2, §3"}}, "data": [{"smiles": "CC[C@@]1(O)C(=O)OCc2c1cc1n(c2=O)Cc2cc3ccccc3nc2-1", "note": "[CPT, 20(S)-Camptothecin]", "values": [{"measurement": "IC50", "setting": "[1]", "value": 320, "unit": "nM"}, {"measurement": "IC50", "setting": "[2]", "value": 290, "unit": "nM"}, {"measurement": "IC50", "setting": "[3]", "value": 130, "unit": "nM"}]}]}
